# Test results reported in patent US4000985A, “Azo dyes having a high solubility in petroleum fuels” (Morton-Norwich Products, Inc., priority 1975, dated 1977).
# Key:
# Assay type in all cases: physicochemical
# [1] = Rate and extent of dissolution in No. 1 and No. 2 Heating Oils at 25° C. (colorimetric); details: for Percent Dissolved: 25° C.
# Method: The solubility properties of each of the dyes of Examples 16-41 were evaluated in the fuels No. 1 and No. 2 Heating Oils, respectively. The procedure was as follows:
# Where the dyes are solid dyes, excess of pulverized solid dye, far beyond that which would dissolve, i.e., 30 to 35% dye, was added to the respective oils at 25° C. and agitated at constant speed. Samples were removed at 1, 10 and 20 minute intervals, filtered, and the amount of dissolved dye determined colorimetrically.
# The tarry non-solid dyes were charged in proportions of 50-60% dye to 50-40% oil rather than 30-35% used for the solid dyes. In fact, it was very difficult to stir the tarry dye-fuel oil mixture at a dye concentration of 50%. Samples for these dyes were taken after 2 minutes. The longer initial time for the tarry dyes was to permit reasonable contact between solvent and the viscous, condensed dye.
# [2] = Physical state of the isolated dye; details: for Physical State of Dye: after isolation according to Procedure B
# From the text: alternatively, the crude liquid dye may be taken up with a volatile solvent and the solvent removed during the drying process to yield a non-volatile liquid colorant.
# [3] = Dissolution of 58% dye in 42% fuel by warming, cooling to 25° C. (six heating/diesel oils); details: 58% by weight dye, warmed, cooled to 25° C.
# Method: No. 2 Regular Grade Diesel Oil
# Each dye-fuel oil mixture was warmed with stirring and then cooled to 25° C.
# [4] = Storage solubility in No. 1 and No. 2 Heating Oil at ambient temperature and -10° C.
# Method: The resultant mixtures were stored at ambient temperatures (20° to 25° C.) and at -10° C. Where any separation of dye occurred, the dye content of the remaining solution was determined colorimetrically.
# [5] = Storage solubility in xylene at 20°-25° C. and -10° C.
# Method: The solutions obtained were stored at 20°-25°C. and at -10° C. Where any separation of dye occurred, the dye content of the remaining solution was determined colorimetrically.
# [6] = No. 1 Fuel Oil, 1 Minute, aminoazobenzene dyes (Table 4)
# [7] = No. 1 Fuel Oil, 20 Minutes, aminoazobenzene dyes (Table 4)
# [8] = No. 2 Fuel Oil, 1 Minute, aminoazobenzene dyes (Table 5)
# [9] = No. 2 Fuel Oil, 10 Minutes, aminoazobenzene dyes (Table 5)
# [10] = No. 2 Fuel Oil, 20 Minutes, aminoazobenzene dyes (Table 5)
# [11] = No. 1 Fuel Oil, 10 Minutes, aminoazobenzene dyes (Table 4)
# [12] = No. 1 Fuel Oil, 1 Minute, aminoazotoluene dyes (Table 6)
# [13] = No. 1 Fuel Oil, 10 Minutes, aminoazotoluene dyes (Table 6)
# [14] = No. 1 Fuel Oil, 20 Minutes, aminoazotoluene dyes (Table 6)
# [15] = No. 2 Fuel Oil, 1 Minute, aminoazotoluene dyes (Table 7)
# [16] = No. 2 Fuel Oil, 10 Minutes, aminoazotoluene dyes (Table 7)
# [17] = No. 2 Fuel Oil, 20 Minutes, aminoazotoluene dyes (Table 7)
SMILES,"Percent Dissolved [1, 6] [%]","Percent Dissolved [1, 7] [%]","Percent Dissolved [1, 8] [%]","Percent Dissolved [1, 9] [%]","Percent Dissolved [1, 10] [%]",Physical State of Dye [2],"Percent Dissolved [1, 11] [%]","Percent Dissolved [1, 12] [%]","Percent Dissolved [1, 13] [%]","Percent Dissolved [1, 14] [%]","Percent Dissolved [1, 15] [%]","Percent Dissolved [1, 16] [%]","Percent Dissolved [1, 17] [%]",further results
CCCCCCCCCCCCNc1ccc2ccccc2c1N=Nc1ccc(N=Nc2ccccc2C)cc1C [Example 41],–,–,–,–,–,Solid,–,3.29,4.04,4.50,4.48,4.68,5.21,–
CCCCCCCCNc1ccc2ccccc2c1N=Nc1ccc(N=Nc2ccccc2)cc1 [Example 24],12.05,5.96,5.48,6.25,6.25,Solid,7.26,–,–,–,–,–,–,–
CCNc1ccc2ccccc2c1N=Nc1ccc(N=Nc2ccccc2C)cc1C [Example 29],–,–,–,–,–,Solid,–,0.24,0.32,0.37,0.29,0.37,0.39,–
CCCCC(CC)CNc1ccc2ccccc2c1N=Nc1ccc(N=Nc2ccccc2)cc1C (stereo not shown) [Example 3],–,–,–,–,–,–,–,–,–,–,–,–,–,"Physical State of Dye at 20° C. ([2]; 20° C.): Liquid; behavior of dye-fuel oil mixture on cooling/storage [3]: completely soluble and remained soluble at temperatures ranging from -10 °C to 25 °C; Solubility (% by Wt.) ([4]; No. 1 Heating Oil, 20° C.-25° C. (Table 8)): Complete; Solubility (% by Wt.) ([4]; No. 1 Heating Oil, -10° C. (Table 8)): Complete; Solubility (% by Wt.) ([4]; No. 2 Heating Oil, 20° C.-25° C. (Table 9)): Complete; Solubility (% by Wt.) ([4]; No. 2 Heating Oil, -10° C. (Table 9)): Complete; Solubility (% by Wt.) ([5]; 20° C.-25° C. (Table 12)): Complete; Solubility (% by Wt.) ([5]; -10° C. (Table 12)): Complete"
Cc1ccccc1N=Nc1ccc(N=Nc2c(NC3CCCCC3)ccc3ccccc23)c(C)c1 [Example 34],–,–,–,–,–,Solid,–,0.82,0.87,0.94,0.99,1.05,1.09,–
CCCCCCCCCCNc1ccc2ccccc2c1N=Nc1ccc(N=Nc2ccccc2C)cc1C [Example 39],–,–,–,–,–,Solid,–,1.09,1.13,1.14,1.30,1.37,1.48,–
CCCCNc1ccc2ccccc2c1N=Nc1ccc(N=Nc2ccccc2)cc1 [Example 17],1.99,1.57,1.83,2.03,2.12,Solid,1.79,–,–,–,–,–,–,–
Cc1ccccc1N=Nc1ccc(N=Nc2c(NCCOCCO)ccc3ccccc23)c(C)c1 [Example 32],–,–,–,–,–,Solid,–,0.09,0.12,0.13,0.20,0.15,0.15,–
CCCCCCNc1ccc2ccccc2c1N=Nc1ccc(N=Nc2ccccc2C)cc1C [Example 33],–,–,–,–,–,Solid,–,1.31,1.28,1.27,0.93,1.01,1.11,–
COCCCNc1ccc2ccccc2c1N=Nc1ccc(N=Nc2ccccc2)cc1 [Example 18],2.02,3.57,0.66,0.68,0.73,Solid,3.15,–,–,–,–,–,–,–
CCOCCOCCCNc1ccc2ccccc2c1N=Nc1ccc(N=Nc2ccccc2C)cc1C [Example 35],–,–,–,–,–,Solid,–,5.33,6.23,7.40,3.70,–,3.97,–
OCCOCCNc1ccc2ccccc2c1N=Nc1ccc(N=Nc2ccccc2)cc1 [Example 19],0.06,0.06,0.14,0.17,0.21,Solid,0.06,–,–,–,–,–,–,–
CCCCCCCNc1ccc2ccccc2c1N=Nc1ccc(N=Nc2ccccc2C)cc1C [Example 36],–,–,–,–,–,Solid,–,1.42,1.56,1.65,1.77,2.27,2.59,–
CCNc1ccc2ccccc2c1N=Nc1ccc(N=Nc2ccccc2)cc1 [Example 16],1.05,1.48,1.49,1.64,1.78,Solid,1.36,–,–,–,–,–,–,–

# Continued, in another order:
"Percent Dissolved [1, 6] [%]","Percent Dissolved [1, 7] [%]","Percent Dissolved [1, 8] [%]","Percent Dissolved [1, 9] [%]","Percent Dissolved [1, 10] [%]",Physical State of Dye [2],"Percent Dissolved [1, 11] [%]","Percent Dissolved [1, 12] [%]","Percent Dissolved [1, 13] [%]","Percent Dissolved [1, 14] [%]","Percent Dissolved [1, 15] [%]","Percent Dissolved [1, 16] [%]","Percent Dissolved [1, 17] [%]",SMILES,further results
3.68,3.68,0.57,0.58,0.61,–,–,–,–,–,–,–,–,CCOCCOCCCNc1ccc2ccccc2c1N=Nc1ccc(N=Nc2ccccc2)cc1 [Example 22],solubility in fuel oils (in words) ([1]; No. 1 and No. 2 fuel oils): low solubility in both fuels much like that of a solid dye
4.65,4.35,5.12,5.12,5.27,Solid,4.47,–,–,–,–,–,–,CCCCCCNc1ccc2ccccc2c1N=Nc1ccc(N=Nc2ccccc2)cc1 [Example 20],–
2.85,5.38,7.46,8.17,9.06,Solid,4.60,–,–,–,–,–,–,CCCCCCCCCCCCNc1ccc2ccccc2c1N=Nc1ccc(N=Nc2ccccc2)cc1 [Example 28],–
4.01,2.30,3.10,3.10,3.21,Solid,2.25,–,–,–,–,–,–,c1ccc(N=Nc2ccc(N=Nc3c(NC4CCCCC4)ccc4ccccc34)cc2)cc1 [Example 21],–
4.97,5.63,6.36,7.25,8.14,Solid,5.12,–,–,–,–,–,–,CCCCCCCCCCNc1ccc2ccccc2c1N=Nc1ccc(N=Nc2ccccc2)cc1 [Example 26],–
–,–,–,–,–,Solid,–,1.38,1.39,1.78,2.26,2.89,2.69,CCCCCCCCNc1ccc2ccccc2c1N=Nc1ccc(N=Nc2ccccc2C)cc1C [Example 37],–
–,–,–,–,–,Solid,–,0.58,0.57,0.58,2.96,4.21,4.96,COCCCNc1ccc2ccccc2c1N=Nc1ccc(N=Nc2ccccc2C)cc1C [Example 31],–
4.92,7.56,7.11,8.10,8.90,Solid,7.83,–,–,–,–,–,–,CCCCCCCNc1ccc2ccccc2c1N=Nc1ccc(N=Nc2ccccc2)cc1 [Example 23],–
–,–,–,–,–,Solid,–,0.19,0.26,0.26,0.27,0.29,0.35,CCCCNc1ccc2ccccc2c1N=Nc1ccc(N=Nc2ccccc2C)cc1C [Example 30],–
